Source: patent publication US20250032631A1, “ANTI-SEZ6 ANTIBODY DRUG CONJUGATES” (AbbVie Inc., priority 2022, published 2025)
pEC50, pIC50: −log10 of the molar value.

Assays:
Format in all cases: cell-based
[1] = tested on: NCI-H524; assay: SCLC cell viability assay (CellTiter-Glo), NCI-H524; conditions: Homo sapiens, 72 h; NCI-H524, 3 days; read-out: IC50, 50% cell growth inhibition
Procedure: (§1) SCLC cell lines NCI-H526 (“H526”), NCI-H524 (“H524”), NCI-H146 (“H146”), NCI-H1963 (“H1963”) and SW-1271 were obtained from the American Type Culture Collection (ATCC). COR-L95 cells were obtained from Millipore Sigma (#96020733). SBC-5 cells were obtained from the Japanese Collection of Research Bioresources Cell Bank (JCRB).
(§2) SCLC cell lines (shown in Table 2, column 1) were plated in white 384-well plates (Corning® 3765) at 1,000-2,000 cells/30 μl RPMI-1640 base media containing 10% heat-inactivated FBS (fetal bovine serum). Cell plates were incubated overnight at 37° C. in 5% CO2. Using a Tecan D300e Digital Dispenser, a dose response using a stock concentration of ADC or solution containing Example 1G and DMSO (dimethyl sulfoxide) was applied to the cells on day 0 and incubated for an additional 10 days (ADCs) or 3 days (Example 1G) at 37°° C. in 5% CO2. Samples were run in duplicate. Cell viability was assessed with the CellTiter-Glo™ Luminescent Cell Viability Assay (Promega, #G7570) according to the manufacturer's instructions, with the exception that the plates were shaken for 30 minutes prior to reading. Luminescence was read on the BioTek Synergy Neo2, and data was analyzed using GraphPad Prism software.

[2] = tested on: Calu-6 cells (lung adenocarcinoma); assay: Cell proliferation (CellTiter-Glo luminescence), Calu-6; conditions: Homo sapiens, Calu-6, read-out: EC50, TOP1i compound potency, Calu-6
Procedure: The effect of TOP1i drugs on cell viability was assessed by monitoring ATP presence for metabolically active cells. Proliferation of Calu-6 cells (lung adenocarcinoma) and A375 cells (malignant melanoma) were quantified using CellTiter-Glo® luminescence.

[3] = tested on: SCLC cell lines; assay: SCLC cell viability assay, summary over the cell line panel; conditions: all SCLC cell lines tested, TOP1 inhibitor alone
Procedure: as §1
as §2, with “software. […]” for “software.”

[4] = tested on: SBC-5; assay: SCLC cell viability assay (CellTiter-Glo), SBC-5; conditions: Homo sapiens, 72 h; SBC-5, 3 days; read-out: IC50, 50% cell growth inhibition
Procedure: as §1, §2

[5] = tested on: A375 cells (malignant melanoma); assay: Cell proliferation (CellTiter-Glo luminescence), A375; conditions: Homo sapiens, A-375, read-out: EC50, TOP1i compound potency, A375
Text: Proliferation of Calu-6 cells (lung adenocarcinoma) and A375 cells (malignant melanoma) were quantified using CellTiter-Glo® luminescence.

[6] = tested on: SW-1271; assay: SCLC cell viability assay (CellTiter-Glo), SW-1271; conditions: SW1271, 72 h; SW-1271, 3 days; read-out: IC50, 50% cell growth inhibition
Procedure: as §1, §2

[7] = tested on: COR-L95; assay: SCLC cell viability assay (CellTiter-Glo), COR-L95; conditions: 72 h; COR-L95, 3 days; read-out: IC50, 50% cell growth inhibition
Procedure: as §1, §2

[8] = tested on: NCI-H526; assay: SCLC cell viability assay (CellTiter-Glo), NCI-H526; conditions: Homo sapiens, 72 h; NCI-H526, 3 days; read-out: IC50, 50% cell growth inhibition
Procedure: as §1, §2

[9] = tested on: NCI-H1963; assay: SCLC cell viability assay (CellTiter-Glo), NCI-H1963; conditions: Homo sapiens, 72 h; NCI-H1963, 3 days; read-out: IC50, 50% cell growth inhibition
Procedure: as §1, §2

[10] = tested on: NCI-H146; assay: SCLC cell viability assay (CellTiter-Glo), NCI-H146; conditions: Homo sapiens, 72 h; NCI-H146, 3 days; read-out: IC50, 50% cell growth inhibition
Procedure: as §1, §2

CC[C@@]1(O)C(=O)OCc2c1cc1n(c2=O)Cc2c-1nc1cc3c(cc1c2C12CC(N)(C1)C2)OCO3 [Example 1G, (7S)-14-(3-aminobicyclo[1.1.1]pentan-1-yl)-7-ethyl-7-hydroxy-2H,10H-[1,3]dioxolo[4,5-g]pyrano[3′,4′:6,7]indolizino[1,2-b]quinoline-8,11(7H,13H)-dione]
pIC50 [1]: 8.77
pEC50 [2]: 9.24
IC50 in all cell lines [3]: sub-to low-nM
pIC50 [4]: 8.90
pEC50 [5]: 9.30
pIC50 [6]: 8.60
pIC50 [7]: 8.24
pIC50 [8]: 9.70
pIC50 [9]: 8.20
pIC50 [10]: 7.67
